EC50 data for 29 compounds are collected here from patent US11932636B2, “RAD51 inhibitors” (Cyteir Therapeutics, Inc., priority 2019, dated 2024).

This assay deals with Daudi cells (AID positive). In words: Compound primary screening: cell death in AID positive Daudi cells (Cell-Titer Glo, Day 7). It is filed as cell-based. As to conditions: Homo sapiens, 168 h; Daudi cells, AID positive; cell death on Day 7, Cell-Titer Glo; read-out: Cellular activity in AID + (Daudi). In short, it runs like this:
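AID-positive Daudi cells were seeded at 1250 cells per well and treated with serially diluted compound delivered from a DMSO/media master plate. Cultures were incubated at 37 °C, and cell death was measured on Day 7 with Cell-Titer Glo luminescence.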

Consider `CCNS(=O)(=O)c1cc(NC2(CC(C)C)COC2)ccc1-c1cnc([C@H]2CC[C@H](NC(=O)OC(C)C)CC2)s1` [Compound 70, isopropyl trans-N-[4-[5-[2-(ethylsulfamoyl)-4-[(3-isobutyloxetan-3-yl)amino]phenyl]thiazol-2-yl]cyclohexyl]carbamate], for which the EC50 was 100 to 1000 nM.
Turning to `CCNS(=O)(=O)c1cc(C(=O)OC)ccc1-c1cnc([C@H]2CC[C@H](NC(=O)OC(C)C)CC2)s1` [Compound 71, methyl trans-3-(ethylsulfamoyl)-4-[2-[4-(isopropoxycarbonyl-amino)cyclohexyl]thiazol-5-yl]benzoate], the EC50 was 1000 to 10000 nM.
Consider `CCNS(=O)(=O)c1cc(CO)ccc1-c1cnc([C@H]2CC[C@H](NC(=O)OC(C)C)CC2)s1` [Compound 72, isopropyl trans-N-[4-[5-[2-(ethylsulfamoyl)-4-(hydroxymethyl)phenyl]thiazol-2-yl]cyclohexyl]carbamate], for which the EC50 fell in the range of 1000 to 10000 nM.
For the compound `CCNS(=O)(=O)c1cc(CNc2ncc[nH]2)ccc1-c1cnc([C@H]2CC[C@H](NC(=O)OC(C)C)CC2)s1` [Compound 73, isopropyl trans-N-[4-[5-[2-(ethylsulfamoyl)-4-[(1H-imidazol-2-ylamino)methyl]phenyl]thiazol-2-yl]cyclohexyl]carbamate], the EC50 was in the range of 1000 to 10000 nM.
As for `CCNS(=O)(=O)c1cc(CNc2ncco2)ccc1-c1cnc([C@H]2CC[C@H](NC(=O)OC(C)C)CC2)s1` [Compound 74, isopropyl trans-N-[4-[5-[2-(ethylsulfamoyl)-4-[(oxazol-2-ylamino)methyl]phenyl]thiazol-2-yl]cyclohexyl]carbamate], the EC50 was 100 to 1000 nM.
For the compound `CCNS(=O)(=O)c1cc(-c2ncc[nH]2)ccc1-c1cnc([C@H]2CC[C@H](NC(=O)OC(C)C)CC2)s1` [Compound 75, isopropyl trans-N-[4-[5-[2-(ethylsulfamoyl)-4-(1H-imidazol-2-yl)phenyl]thiazol-2-yl]cyclohexyl]carbamate], the EC50 was in the range of 1000 to 10000 nM.
As for `CCNS(=O)(=O)c1cc(CC(=O)OC)ccc1-c1cnc([C@H]2CC[C@H](NC(=O)OC(C)C)CC2)s1` [Compound 76, methyl trans-2-[3-(ethylsulfamoyl)-4-[2-[4-(isopropoxycarbonylamino)cyclohexyl]thiazol-5-yl]phenyl]acetate], the EC50 was 1000 to 10000 nM.
For `CCNS(=O)(=O)c1cc(CC(=O)O)ccc1-c1cnc([C@H]2CC[C@H](NC(=O)OC(C)C)CC2)s1` [Compound 77, trans-2-[3-(ethylsulfamoyl)-4-[2-[4-(isopropoxycarbonyl-amino)cyclohexyl]thiazol-5-yl]phenyl]acetic Acid], the EC50 fell in the range of 1000 to 10000 nM.
In the case of `CCNS(=O)(=O)c1cc(Cc2ncc[nH]2)ccc1-c1cnc([C@H]2CC[C@H](NC(=O)OC(C)C)CC2)s1` [Compound 78, isopropyl trans-N-[4-[5-[2-(ethylsulfamoyl)-4-(1H-imidazol-2-ylmethyl)phenyl]thiazol-2-yl]cyclohexyl]carbamate], the EC50 lay in the range of 1000 to 10000 nM.
Turning to `CCNS(=O)(=O)c1cc(CC(=O)NCc2ccccc2)ccc1-c1cnc([C@H]2CC[C@H](NC(=O)OC(C)C)CC2)s1` [Compound 79, isopropyl trans-N-[4-[5-[4-[2-(benzylamino)-2-oxo-ethyl]-2-(ethyl-sulfamoyl)phenyl]thiazol-2-yl]cyclohexyl]carbamate], the EC50 is below 100 nM.
To `CCNS(=O)(=O)c1cc(CC(=O)N(C)C(C)C)ccc1-c1cnc([C@H]2CC[C@H](NC(=O)OC(C)C)CC2)s1` [Compound 80, isopropyl trans-N-[4-[5-[4-[2-(isopropyl(methyl)amino)-2-oxo-ethyl]-2-(ethyl-sulfamoyl)phenyl]thiazol-2-yl]cyclohexyl]carbamate] belongs 100 to 1000 nM; to `CCNS(=O)(=O)c1cc(CC(=O)N(C)Cc2ccccc2)ccc1-c1cnc([C@H]2CC[C@H](NC(=O)OC(C)C)CC2)s1` [Compound 81, isopropyl trans-N-[4-[5-[4-[2-(benzyl(methyl)amino)-2-oxo-ethyl]-2-(ethyl-sulfamoyl)phenyl]thiazol-2-yl]cyclohexyl]carbamate], 100 to 1000 nM; to `CCNS(=O)(=O)c1cc(CC(=O)N2CCCC2)ccc1-c1cnc([C@H]2CC[C@H](NC(=O)OC(C)C)CC2)s1` [Compound 82, isopropyl trans-N-[4-[5-[4-[2-oxo-2-(pyrrolidin-1-yl)ethyl]-2-(ethyl-sulfamoyl)phenyl]thiazol-2-yl]cyclohexyl]carbamate], 100 to 1000 nM.
To `CCNS(=O)(=O)c1cc(CC(=O)N2CCCCC2)ccc1-c1cnc([C@H]2CC[C@H](NC(=O)OC(C)C)CC2)s1` [Compound 83, isopropyl trans-N-[4-[5-[4-[2-oxo-2-(piperidin-1-yl)ethyl]-2-(ethyl-sulfamoyl)phenyl]thiazol-2-yl]cyclohexyl]carbamate] belongs 100 to 1000 nM.
As for `CCNS(=O)(=O)c1cc(CC(=O)N2CCOCC2)ccc1-c1cnc([C@H]2CC[C@H](NC(=O)OC(C)C)CC2)s1` [Compound 84, isopropyl trans-N-[4-[5-[4-[2-oxo-2-(morpholin-4-yl)ethyl]-2-(ethyl-sulfamoyl)phenyl]thiazol-2-yl]cyclohexyl]carbamate], the EC50 fell in the range of 100 to 1000 nM.
In the case of `CCNS(=O)(=O)c1cc(CC(=O)N2CC(O)C2)ccc1-c1cnc([C@H]2CC[C@H](NC(=O)OC(C)C)CC2)s1` [Compound 85, isopropyl trans-N-[4-[5-[4-[2-oxo-2-(3-hydroxyazetidin-1-yl)ethyl]-2-(ethyl-sulfamoyl)phenyl]thiazol-2-yl]cyclohexyl]carbamate], the EC50 is 100 to 1000 nM.
In the case of `CCNS(=O)(=O)c1cc(CC(N)=O)ccc1-c1cnc([C@H]2CC[C@H](NC(=O)OC(C)C)CC2)s1` [Compound 86, isopropyl trans-N-[4-[5-[4-[2-amino-2-oxo-ethyl]-2-(ethyl-sulfamoyl)phenyl]thiazol-2-yl]cyclohexyl]carbamate], the EC50 lay in the range of 100 to 1000 nM.
With `CCNS(=O)(=O)c1cc(CC(=O)N2CCC2)ccc1-c1cnc([C@H]2CC[C@H](NC(=O)OC(C)C)CC2)s1` [Compound 87, isopropyl trans-N-[4-[5-[4-[2-oxo-2-(azetidin-1-yl)ethyl]-2-(ethyl-sulfamoyl)phenyl]thiazol-2-yl]cyclohexyl]carbamate], the EC50 lay in the range of 100 to 1000 nM.
With `CC(C)OC(=O)N[C@H]1CC[C@H](c2ncc(-c3ccc(N)cc3S(=O)(=O)N3CCCC3)s2)CC1` [Compound 88, isopropyl trans-N-[4-[5-(4-amino-2-pyrrolidin-1-ylsulfonyl-phenyl)thiazol-2-yl]cyclohexyl]carbamate] the figure was 100 to 1000 nM; with `CNc1ccc(-c2cnc([C@H]3CC[C@H](NC(=O)OC(C)C)CC3)s2)c(S(=O)(=O)N2CCCC2)c1` [Compound 89, isopropyl trans-N-[4-[5-(4-(methylamino)-2-pyrrolidin-1-ylsulfonyl-phenyl)thiazol-2-yl]cyclohexyl]carbamate], 100 to 1000 nM; with `CC(C)OC(=O)N[C@H]1CC[C@H](c2ncc(-c3ccc(Nc4ncc[nH]4)cc3S(N)(=O)=O)s2)CC1` [Compound 90, isopropyl trans-N-[4-[5-[4-(1H-imidazol-2-ylamino)-2-sulfamoyl-phenyl]thiazol-2-yl]cyclohexyl]carbamate], 100 to 1000 nM.
Turning to `CC(C)OC(=O)N[C@H]1CC[C@H](c2ncc(-c3ccc(Nc4ncc[nH]4)cc3S(=O)(=O)N(C)C)s2)CC1` [Compound 91, isopropyl trans-N-[4-[5-[2-(dimethylsulfamoyl)-4-(1H-imidazol-2-ylamino)phenyl]thiazol-2-yl]cyclohexyl]carbamate], the EC50 was in the range of 100 to 1000 nM.
On to `CC(C)OC(=O)N[C@H]1CC[C@H](c2ncc(-c3ccc(Nc4ncc[nH]4)cc3S(=O)(=O)N3CCCC3)s2)CC1` [Compound 92, isopropyl trans-N-[4-[5-[4-(1H-imidazol-2-ylamino)-2-pyrrolidin-1-ylsulfonyl-phenyl]thiazol-2-yl]cyclohexyl]carbamate], for which the EC50 fell in the range of 100 to 1000 nM.
As to `CNS(=O)(=O)c1ccccc1-c1cnc([C@H]2CC[C@H](NC(=O)OC(C)C)CC2)s1` [Compound 93, isopropyl trans-N-[4-[5-(2-methylsulfamoylphenyl)thiazol-2-yl]cyclohexyl]carbamate], the EC50 was in the range of 1000 to 10000 nM.
On to `CCNS(=O)(=O)c1cc(C(=O)Nc2ncc[nH]2)ccc1-c1cnc([C@H]2CC[C@H](NC(=O)OC(C)C)CC2)s1` [Compound 94, isopropyl trans-N-[4-[5-[2-(ethylsulfamoyl)-4-(1H-imidazol-2-ylcarbamoyl)phenyl]thiazol-2-yl]cyclohexyl]carbamate], for which the EC50 was below 100 nM.
`CCNS(=O)(=O)c1cc(C(=O)N2CCCC2)ccc1-c1cnc([C@H]2CC[C@H](NC(=O)OC(C)C)CC2)s1` [Compound 95, isopropyl trans-N-[4-[5-[4-pyrrolidin-1-ylcarbonyl-2-(ethylsulfamoyl)phenyl]thiazol-2-yl]cyclohexyl]carbamate]: the EC50 was 100 to 1000 nM.
`CCNS(=O)(=O)c1cc(CC(=O)NC(C)C)ccc1-c1cnc(N2CCN(C(=O)OC3COC3)CC2)s1` [Compound 96, oxetan-3-yl 4-(5-(2-(N-ethylsulfamoyl)-4-(2-(isopropylamino)-2-oxoethyl)phenyl)thiazol-2-yl)piperazine-1-carboxylate]: the EC50 is above 10000 nM.
Take `CC(C)OC(=O)N[C@H]1CC[C@H](c2ncc(-c3ccc(CC(=O)NCc4ccccc4)cc3S(=O)(=O)NC(C)(C)C)s2)CC1` [Compound 97, isopropyl trans-N-[4-[5-[4-[2-(benzylamino)-2-oxo-ethyl]-2-(tert-butylsulfamoyl)phenyl]thiazol-2-yl]cyclohexyl]carbamate]: the EC50 was below 100 nM.
Regarding `CC(C)(C)NS(=O)(=O)c1cc(CC(=O)NCc2ccccc2)ccc1-c1cnc([C@H]2CC[C@H](NC(=O)OC3COC3)CC2)s1` [Compound 98, oxetan-3-yl trans-N-[4-[5-[4-[2-(benzylamino)-2-oxo-ethyl]-2-(tert-butylsulfamoyl)phenyl]thiazol-2-yl]cyclohexyl]carbamate], the EC50 is below 100 nM.
